# “And” between values parts separate entries of the source, which are not always exact repeats. Equal values may be shown once. “Also recorded” adds a separate entry of the source.
# Experiments:
# Plasmodium yoelii (17×) = test: Sporozoite induced test in mouse (causal prophylactic activity); assay type: in vivo; conditions: sporozoite challenged CD-1 mice; single dose 4 hours before inoculation; oral administration
# Protocol: The causal prophylactic antimalarial activity of the new carbamate derivatives were assessed in a sporozoites challenged mouse model according to the following protocol and the results are shown in Table 4 and Table 5.
# Each compound was ground with a mortar and pestle and suspended in 0.5% hydroxyethylcellulose and 0.1% Tween 80 for compounds to be administered PO and those given SC were suspended in peanut oil. Each compound is prepared at 3 different dose levels.
# Compounds were administered either PO or SC to mice once 4 hours before inoculation of sporozoites.
# Four-week-old male CD-1 mice, purchased from Charles River and weighing about 16 to about 17 grams were placed 5 per cage and allowed to acclimate for 4 days before being treated and then inoculated with sporozoites. They were fed food and water ad-lib and maintained at 76° F. with 12 hour light and 12 hour darkness. The cages and water bottles were changed biweekly. The mice are weighed on Days 0, 3 and 6 then biweekly when blood films were taken.
# Plasmodium yoelii (17×) was used to infect mice that will be used to infect the mosquitoes.
# Mice were given a single dose of test compound 4 hours before being inoculated intraperitoneally with 2.5×10^5 sporozoites of Plasmodium yoelii on Day 0. Whole body weights were taken on Day 0 and Day 6 then twice a week for 31 days. A blood film was taken on Day 5 and then twice a week for 31 days. Mice loosing greater than about 20% of their body weight were sacrificed. All mice alive on Day 31 with no parasites in a blood film were considered cured. Donor mice used to infect the mosquitoes were infected with 2.5×10^4 parasitized erythrocytes. The mosquitoes were allowed to feed on these malaria-infected mice on Day 4 of their infection when the parasitemia was low.
# A compound was considered active against either the sporozoite or the EE stage if no parasites were found in the blood films taken on Day 5 or on subsequent blood films taken weekly for 31 days.
# Mice alive on Day 31 with no parasites found in any blood films were considered cured.
# [1] = Solubility and characteristics of the compounds in the dosing vehicle; assay type: physicochemical
# P. cynomolgi sporozoites [2] = test: Oral causal prophylactic assay in Rhesus monkey (compound 3 IM; 4b and 3c PO); assay type: in vivo, Plasmodium cynomolgi; conditions: per monkey
# Protocol: To test the causal prophylactic intramuscular potency of the purified isomer of compound 3 and oral potency of two carbamate derivatives of 2-guanidinylimidazolidinedione (4b and 3c) the following assay was conducted.
# Fourteen rhesus monkeys were issued.
# A donor monkey was inoculated intravenously with 1.3 ml, freshly-thawed frozen infected red blood cell (DA310). When the monkey developed gametocytemia, mosquito feedings were conducted on days 15 and 16 after inoculation. The donor monkey was treated with intramuscular chloroquine hydrochloride (CQ) 10 mg/kg, once a day after the second mosquito feeding and continued for 6 days.
# On day 0 of the beginning of the assay, each of the 14 monkeys was inoculated intravenously with 1-ml inoculum of suspension containing about 1.0×10^6 P. cynomolgi sporozoites harvested from Anopheles dirus mosquitoes' salivary glands previously fed on the donor monkey.
# All monkeys received treatment on days −1, 0 and 1. The control monkeys (Group 1) received HECT orally and the experimental animals received testing compound intramuscularly (Groups 2 and 3) or orally (Groups 4 to 7).
# P. cynomolgi sporozoites [3] = test: Causal prophylactic assay for intramuscular administration in Rhesus monkey; assay type: in vivo, Plasmodium cynomolgi
# Protocol: The causal prophylactic antimalarial activity of the two 2-guanidinylimidazolidinedione carbamates 3c and 4b were assessed against Plasmodium cynomolgi in Rhesus monkey. Two monkeys were used in each test group. The average control animal developed parasitemia is about 10 days after inoculation of about 1×10^6 P. cynomolgi sporozoites harvested from Anopheles dirus.
# In order to study the causal prophylactic activity of the 2-guanidinylimidazolidinedione compounds of the present invention, the following assay was conducted. Twelve rhesus monkeys were issued. The monkeys were randomized to 2 control animals and 5 groups of 2 experimental animals each.
# A donor monkey was inoculated intravenously with 1.3 ml, freshly-thawed frozen infected red blood cells (DA310). The experiments were conducted in US Army oversea laboratory, AFRIMS, Bankoku, Thailand. When the donor monkey developed gametocytemia, mosquito feedings were conducted on days 13 and 14 after inoculation. The donor monkey was treated with intramuscular chloroquine hydrochloride (CQ) 10 mg/kg, once a day after the second mosquito feeding and continued for 7 days.
# On day 0 (beginning of assay), each of the 12 monkeys was inoculated intravenously with 1-ml inoculum of suspension containing about 1.0×10^6 P. cynomolgi sporozoites harvested from Anopheles dirus mosquitoes' salivary glands previously fed on the donor monkey. See Corcoran, K D, et al. (1993) Am. J. Trop. Med. Hyg. 49:473–477, and Shanks, G D, et al. (2001) Clinical Infectious Diseases 33:1968–1974, which are herein incorporated by reference.
# All monkeys received treatment on days −1, 0 and 1. The control monkeys received dimethylsulfoxide (DMSO) and the experimental animals received testing compound intramusculary.
compound,measurement,setting,value
"CCOC(=O)N=C(N=C1NC(=O)C(=O)N1C(C)C)Nc1ccc(Cl)c(Cl)c1 [Compound 3a, N-(3,4-dichlorophenyl)-N′-ethoxycarbonyl-N″-(1-isopropyl-4,5-dioxo-imidazolidin-2-ylidene)-guanidine]",melting point,,257 °C
same,Minimum Protective Dose Against P. yoelii,Plasmodium yoelii (17×),2.5 mg/kg
"CC(C)COC(=O)N=C(N=C1NC(=O)C(=O)N1C(C)C)Nc1ccc(Cl)c(Cl)c1 [Compound 3b, N-(3,4-dichlorophenyl)-N′-(isobutoxycarbonyl)-N″-(1-isopropyl-4,5-dioxo-imidazolidin-2-ylidene)-guanidine]",Minimum Protective Dose Against P. yoelii,Plasmodium yoelii (17×),>40 mg/kg
"CC(C)N1C(=O)C(=O)NC1=NC(=NC(=O)OC(C)(C)C)Nc1ccc(Cl)c(Cl)c1 [Compound 3c, N-(3,4-dichlorophenyl)-N′-(1-isopropyl-4,5-dioxoimidazolidin-2-ylidene)-N″-(tert-butoxycarbonyl)-guanidine]",Sediment,"[1]; vehicle DMSO, dosage 10 mg/kg",None
same,Solubility,"[1]; vehicle DMSO, dosage 10 mg/kg",Good
same,Sediment,"[1]; vehicle DMSO, dosage 30 mg/kg",None
same,Solubility,"[1]; vehicle DMSO, dosage 30 mg/kg",Good
same,Solubility,"[1]; vehicle HECT, dosage 10 mg/kg",Moderate
same,Supernatant,"[1]; vehicle HECT, dosage 10 mg/kg",Turbid
same,Solubility,"[1]; vehicle HECT, dosage 30 mg/kg",Moderate
same,Supernatant,"[1]; vehicle HECT, dosage 30 mg/kg",Turbid
same,Minimum Protective Dose Against P. yoelii,Plasmodium yoelii (17×),40 mg/kg
same,Day of Parasitemia,"P. cynomolgi sporozoites [2]; 10 mg/kg PO, 10 mg/kg",9 days and 10 days
same,Result (delay the parasitemia),"P. cynomolgi sporozoites [2]; 10 mg/kg PO, 10 mg/kg",2 days and 1 days
same,Day of Parasitemia,"P. cynomolgi sporozoites [2]; 30 mg/kg PO, 30 mg/kg",10 days and 11 days
same,Result (delay the parasitemia),"P. cynomolgi sporozoites [2]; 30 mg/kg PO, 30 mg/kg",3 days and 2 days
"CCCCCCOC(=O)N=C(N=C1NC(=O)C(=O)N1C(C)C)Nc1ccc(Cl)c(Cl)c1 [Compound 3e, N-(3,4-dichlorophenyl)-N′-(1-hexyloxycarbonyl)-N″-(1-isopropyl-4,5-dioxo-imidazolidin-2-ylidene)-guanidine]",Minimum Protective Dose Against P. yoelii,Plasmodium yoelii (17×),40 mg/kg
"C=CCCOC(=O)N=C(N=C1NC(=O)C(=O)N1C(C)C)Nc1ccc(Cl)c(Cl)c1 [Compound 3g, N-(3,4-dichlorophenyl)-N′-(3-butenyloxycarbonyl)-N″-(1-isopropyl-4,5-dioxoimidazolidin-2-ylidene)-guanidine]",Minimum Protective Dose Against P. yoelii,Plasmodium yoelii (17×),160 mg/kg
"CC(C)N1C(=O)C(=O)NC1=NC(=NC(=O)OCCOCc1ccccc1)Nc1ccc(Cl)c(Cl)c1 [Compound 3h, N-(3,4-dichloro-phenyl)-N′-(2-benzyloxyethoxycarbonyl)-N″-(1-isopropyl-4,5-dioxo-imidazolidin-2-ylidene)-guanidine]",Minimum Protective Dose Against P. yoelii,Plasmodium yoelii (17×),160 mg/kg
"CC(C)NC(=N)NC1=NC(=O)C(=O)N1c1ccc(Cl)c(Cl)c1 [Compound 4, N-[1-(3,4-dichlorophenyl)-4,5-dioxo-4,5-dihydro-1H-imidazol-2-yl]-N′-isopropylguanidine]",melting point,,244 °C and 245 °C
same,Minimum Protective Dose Against P. yoelii,Plasmodium yoelii (17×),5 mg/kg
"CC(C)COC(=O)N=C(N=C1NC(=O)C(=O)N1c1ccc(Cl)c(Cl)c1)NC(C)C [Compound 4b, N-[1-(3,4-dichlorophenyl)-4,5-dioxo-imidazolidin-2-ylidene]-N′-isopropyl-N″-(isobutyloxycarbonyl)guanidine]",Sediment,"[1]; vehicle DMSO, dosage 10 mg/kg",None
same,Solubility,"[1]; vehicle DMSO, dosage 10 mg/kg",Good
same,Supernatant,"[1]; vehicle DMSO, dosage 10 mg/kg",Clear
same,Supernatant,"[1]; vehicle DMSO, dosage 30 mg/kg",Clear
same,Solubility,"[1]; vehicle HECT, dosage 10 mg/kg",Moderate
same,Supernatant,"[1]; vehicle HECT, dosage 10 mg/kg",Turbid
same,Solubility,"[1]; vehicle HECT, dosage 30 mg/kg",Moderate
same,Supernatant,"[1]; vehicle HECT, dosage 30 mg/kg",Turbid
same,Minimum Protective Dose Against P. yoelii,Plasmodium yoelii (17×),2.5 mg/kg
same,Day of Parasitemia,"P. cynomolgi sporozoites [3]; 10 mg/kg IM on days -1, 0 and 1, per monkey, 10 mg/kg",Parasitemia on day 47 and Parasite free on day 100 and 47 day and Remain parasite free
same,Result (causal prophylaxis = parasite free for 100 days after treatment),"P. cynomolgi sporozoites [3]; 10 mg/kg IM, 10 mg/kg",protected one monkey; also recorded: Causal prophylaxis; also recorded: Delay the parasitemia
same,Delay of parasitemia,"P. cynomolgi sporozoites [3]; 10 mg/kg IM, the monkey not protected",34 days
same,Day of Parasitemia,"P. cynomolgi sporozoites [3]; 30 mg/kg IM on days -1, 0 and 1, per monkey, 30 mg/kg",stayed parasite free 100 days after treatment; also recorded: Parasite free on day 100; also recorded: Remain parasite free
same,Result (causal prophylaxis = parasite free for 100 days after treatment),"P. cynomolgi sporozoites [3]; 30 mg/kg IM, 30 mg/kg",protected; also recorded: Causal prophylaxis
same,Protective / prophylactic activity (in words),"P. cynomolgi sporozoites [3]; 10 and 30 mg/kg, intramuscular",partial to complete prophylactic activity; also recorded: protective activity
same,Day of Parasitemia,P. cynomolgi sporozoites [2]; 10 mg/kg PO,8 days
same,Result (delay the parasitemia),"P. cynomolgi sporozoites [2]; 10 mg/kg PO, 10 mg/kg",not protected; also recorded: No activity
same,Day of Parasitemia,P. cynomolgi sporozoites [2]; 30 mg/kg PO,8 days
same,Result (delay the parasitemia),"P. cynomolgi sporozoites [2]; 30 mg/kg PO, 30 mg/kg",not protected; also recorded: No activity
"CC(C)NC(=NC(=O)OC(C)(C)C)N=C1NC(=O)C(=O)N1c1ccc(Cl)c(Cl)c1 [Compound 4c, N-[1-(3,4-dichlorophenyl)-4,5-dioxo-imidazolidin-2-ylidene]-N′-isopropyl-N″-(tert-butoxycarbonyl)guanidine]",Minimum Protective Dose Against P. yoelii,Plasmodium yoelii (17×),1.25 mg/kg
"CCCCCCOC(=O)N=C(N=C1NC(=O)C(=O)N1c1ccc(Cl)c(Cl)c1)NC(C)C [Compound 4e, N-[1-(3,4-dichlorophenyl)-4,5-dioxo-imidazolidin-2-ylidene]-N′-isopropyl-N″-(1-hexyloxycarbonyl)guanidine]",Minimum Protective Dose Against P. yoelii,Plasmodium yoelii (17×),5 mg/kg
"N=C(N=C1NC(=O)C(=O)N1c1ccc(Cl)c(Cl)c1)Nc1ccc(Cl)c(Cl)c1 [Compound 19, N-(3,4-dichlorophenyl)-N′-[1-(3,4-dichlorophenyl)-4,5-dioxo-imidazolidin-2-ylidene]-guanidine]",melting point,,220 °C
"C[C@H]1[C@@H](O)O[C@@H]2O[C@@]3(C)CC[C@H]4[C@H](C)CC[C@@H]1[C@@]24OO3 [Dihyroartemisinin, reference compound]",Minimum Protective Dose Against P. yoelii,Plasmodium yoelii (17×),160 mg/kg
"COc1cc(NC(C)CCCN)c2ncccc2c1 (stereo not drawn) [Primaquine, reference compound]",Minimum Protective Dose Against P. yoelii,Plasmodium yoelii (17×),40 mg/kg
"COc1cc(C)c2c(Oc3cccc(C(F)(F)F)c3)c(OC)cc(NC(C)CCCN)c2n1 (stereo not drawn) [Tafenoguine, reference compound]",Minimum Protective Dose Against P. yoelii,Plasmodium yoelii (17×),2.5 mg/kg
"N-(3,4-dichloro-phenyl)-N′-(5-methyl-2-oxo-1,3-dioxol-4-yl)methyl-N″-(1-isopropyl-4,5-dioxo-imidazolidin-2-ylidene)guanidine [Compound 3f]",Minimum Protective Dose Against P. yoelii,Plasmodium yoelii (17×),>40 mg/kg
"N-(3,4-dichlorophenyl)-N′-(benzyloxycarbonyl)-N″-(1-isopropyl-4,5-dioxo-imidazolidin-2-ylidene)-guanidine [Compound 3d]",Minimum Protective Dose Against P. yoelii,Plasmodium yoelii (17×),>160 mg/kg
